From patent EP3818977A1, “CD93 INHIBITORS FOR USE IN THE TREATMENT OF CANCER” (Universität Bern, priority 2019, dated 2021)

Key:
murine LSCs = test: Colony assay of murine LSCs in methylcellulose; type: cell-based, mouse
Protocol: Colony assays from BM lin^- cells of CML and naive mice and CD34^+ stem/progenitor cells of human CML patients were performed as described before ([…] et al. 2015). For mouse colony assays 10^3 FACS-purified LSKs or LSCs were plated in methylcellulose and colonies were enumerated 7 days later. For serial re-plating experiments, 10^4 cells were collected from preceding colony assays and re-plated in methylcellulose. Colonies were enumerated 7 days later. For experiments using metoclopramide (Sigma), 10^3 FACS-purified murine LSCs or 2x10^3 human CD34^+ […] methylcellulose. Colony were enumerated 7 days and 14 days later, respectively. For re-plating assays 10^4or 2x10^4 cells isolated from primary mouse and human colony assays, respectively, were subsequently replated in methylcellulose in the absence of any compound. Colony were enumerated 7 days and 14 days later, respectively.

human CD34^+CD38^- LSCs = test: Colony and re-plating assay of human CML stem/progenitor cells in semisolid culture; type: cell-based; conditions: 0.1µM, semisolid cultures, compared to control treatment
Protocol: Colony assays from BM lin^- cells of CML and naive mice and CD34^+ stem/progenitor cells of human CML patients were performed as described before (Riether et al. 2015).
For experiments using metoclopramide (Sigma), 10^3 FACS-purified murine LSCs or 2x10^3 human CD34^+ stem/progenitor cells were incubated overnight in 96 well V-bottom plates in the presence of 0.1 and 1µM metoclopramide or vehicle followed by plating methylcellulose. Colony were enumerated 7 days and 14 days later, respectively.
For re-plating assays 10^4or 2x10^4 cells isolated from primary mouse and human colony assays, respectively, were subsequently replated in methylcellulose in the absence of any compound. Colony were enumerated 7 days and 14 days later, respectively.

Compound	colony formation of murine LSCs (murine LSCs)	clonogenic potential of CD93-competent LSCs (murine LSCs; in vitro, BL/6 LSCs cultured overnight with 1mM metoclopramide (Fig. 6H), colonies assessed 7 days later)	colony formation of CD93-deficient LSCs (murine LSCs; in vitro, Cd93^-/- LSCs cultured overnight with 1mM metoclopramide (Fig. 6H), colonies assessed 7 days later)	colony formation (human CD34^+CD38^- LSCs)	re-plating capacity (human CD34^+CD38^- LSCs; re-plating in the absence of compound)
CCN(CC)CCNC(=O)c1cc(Cl)c(N)cc1OC [metoclopramide, Metoclopramide]	effective in reducing colony formation of murine LSCs	reduced clonogenic potential of CD93-competent LSCs to comparable levels as CD93-deficient LSCs	without further affecting colony formation of CD93-deficient LSCs	significantly impaired	significantly impaired
CC(CN1c2ccccc2Sc2ccccc21)N(C)C (stereo not drawn) [promethazine, Promethazine]	effective in reducing colony formation of murine LSCs				
